Experimental data published in patent US20080207450A1, “Method of Substantially Preventing or Inhibiting Summer Bentgrass Decline” (priority 2007, published 2008).

System: Creeping bentgrass
Assay: Outdoor bentgrass bed exposed to elevated atmospheric carbon dioxide over summer; visual quality and root depth
Format: in vivo, Agrostis stolonifera
Conditions: about 700 ppm carbon dioxide from daylight until dark, July and August
Description: In the fall, the inventors established an outdoor bed of bentgrass in Lincoln Parish, La. This region has an average daily high temperature in July and August of 93° F. (www.enlou.com/econ/lincoln_econ.htm). The bed of bentgrass established by the inventors was a randomized block comprising three varieties of Creeping bentgrass: Penn A1 (Agrostis stolonifera ‘Penn A-1’), Penn A2, (Agrostis stolonifera ‘Penn A-2’) and Penn A4 (Agrostis stolonifera ‘Penn A-4’). The bentgrass bed was maintained over the winter. During the following July and August, the inventors constructed a conduit system through which carbon dioxide was pumped over a portion of the bentgrass bed (test zone). The conduit system comprised a plurality of hollow PVC pipes, each pipe having an approximate length of 72 inches and an approximate diameter of ¾ of an inch. Several of the pipes were affixed to each other to form the perimeter of a support platform having a rectangular shape. The remaining pipes were arranged in a parallel fashion and affixed within the support platform. […] The carbon dioxide concentrations in both zones were monitored via a standard, commercially available gas analyzer. At the end of August, both the treated and non-treated areas of the bentgrass were assayed visually for quality and also measured for root-depth.

## O=C=O [carbon dioxide]
Sample root from test zone, measured at end of August
  length of sample root: approximately 10.75 inches
Test zone, Lincoln Parish, La., assayed at end of August, varieties Penn A1, A2, A4
  visual quality of bentgrass: did not experience a loss in quality
